Measured values published in patent publication US8551984B2, “Aminopyrimidines as SYK inhibitors” (Merck Sharp & Dohme Corp., priority 2009, dated 2013).
pIC50: −log10 of the molar value. Where two headings read alike, the source gives them in different places.

Columns and labels:
[1] = biological target: rhSYK (Homo sapiens, UniProt P43405); assay: biochemical
[2] = biological target: recombinant human SYK (GST-hSYK fusion protein) (Homo sapiens, UniProt P43405)
Source text: Homogeneous Time-Resolved Fluorescence (HTRF) Assay for the Recombinant Human SYK Enzyme:

[3] = read-out: rhSYK Activity, Table 33B
[4] = read-out: rhSYK Activity, Table 33-A
[5] = read-out: rhSYK Activity, Table 54B
[6] = read-out: rhSYK Activity, Table 113B
[7] = read-out: rhSYK Activity, Table 54D
[8] = read-out: rhSYK Activity (IC50), recombinant human GST-SYK 5 pM, ATP 25 μM, biotinylated substrate peptide 250 nM, HTRF, 10-dose titration
[9] = read-out: rhSYK Activity, Table 113A

COc1ccnc(Nc2cc(C)cc(-c3cnc([C@@]4(O)CC[C@H](C(=O)NCC#N)C(C)(C)C4)s3)c2)n1 [Example 119-133]
pIC50 [1]: > 7.00

Cc1cc(Nc2nccc(C(F)(F)F)n2)cc(-c2cnc([C@]3(O)CC[C@@H](C(=O)Nc4cccnc4)CC3)s2)c1 [Example 119-36]
pIC50 [1]: > 7.00

Cc1cc(Nc2nccc(C(C)C)n2)cc(-c2cnc(C3(O)CCCN(C(=O)CC(N)=O)CC3)s2)c1 (centres unmarked) [Example 117-13]
pIC50 [1]: > 7.00

Cc1cc(Nc2ncc(Cl)c(C)n2)cc(-c2cnc(C3(O)CCC4(CC3)OCCO4)s2)c1 [Example 116B-2]
pIC50 [1]: > 7.00

Cc1cc(Nc2nccc(C(F)(F)F)n2)cc(-c2cnc([C@]3(O)CC[C@@H](C(=O)Nc4ccc(F)cc4)CC3)s2)c1 [Example 119-62]
pIC50 [1]: > 7.00

Cc1cc(Nc2nccc(C(F)(F)F)n2)cc(-c2cnc(C3(O)CCC(C(=O)N4CCCC(C#N)C4)CC3)s2)c1 (centres unmarked) [Example 119-60]
pIC50 [1]: > 7.00

Cc1cc(Nc2nccc(C(F)(F)F)n2)cc(-c2cnc(C3(O)CCC(C(=O)NCC#N)CC3)s2)c1 (centres unmarked) [Example 119-18]
pIC50 [1]: > 7.00

Cc1cc(Nc2nccc(C(F)(F)F)n2)cc(-c2cnc([C@]3(O)CC[C@@H](C(=O)NCc4ccc(-n5cc(CO)cn5)cc4)CC3)s2)c1 [Example 119-105]
pIC50 [1]: > 7.00

Cc1cc(Nc2nccc(C(F)(F)F)n2)cc(-c2cnc([C@]3(O)CC[C@@H](C(=O)Nc4ccc(CO)cc4)CC3)s2)c1 [Example 119-72]
pIC50 [1]: > 7.00

Cc1cc(Nc2nccc(C(F)(F)F)n2)cc(-c2cnc([C@]3(O)CC[C@@H](C(=O)NCc4ccc5c(c4)NC(=O)CC5)CC3)s2)c1 [Example 119-103]
pIC50 [1]: > 7.00

Cc1cc(Nc2nccc(C)n2)cc(-c2cnc(C3(O)CCC(C(=O)O)C(C(C)C)C3)s2)c1 (centres unmarked) [Example 33B-34]
pIC50 [2, 3]: > 7.00

CC1(C)CC(O)(c2ncc(-c3cccc(Nc4nccc(C(F)(F)F)n4)c3)s2)CCC1C(=O)O (single isomer, unassigned) [Example 33A-67]
pIC50 [2, 4]: > 7.00

Cc1cc(Nc2nccc(C(F)(F)F)n2)cc(-c2cnc(C3(O)CCN(C(N)=O)C3)s2)c1 (centres unmarked) [54B-7]
pIC50 [2, 5]: > 7.00

Cc1cc(Nc2nccc(C)n2)cc(-c2cnc(C3(O)CC(C)C(C(=O)O)CC3C)s2)c1 (centres unmarked) [Example 113B-1]
pIC50 [2, 6]: > 7.00

Cc1cc(Nc2nccc(C(F)(F)F)n2)cc(-c2cnc(C3(O)CCCN(C(=O)c4cnn[nH]4)CC3)s2)c1 (centres unmarked) [Example 54D-35]
pIC50 [2, 7]: > 7.00

Cc1cc(Nc2nccc(C(F)(F)F)n2)cc(-c2cnc(C3(O)CCCN(C(=O)c4nc[nH]n4)CC3)s2)c1 (single isomer, unassigned) [Example 54D-125]
pIC50 [2, 7]: > 7.00

Cc1cc(Nc2nccc(C(F)(F)F)n2)cc(-c2cnc(C3(O)CCCN(C(=O)CO)CC3)s2)c1 (single isomer, unassigned) [Example 54D-123]
pIC50 [2, 7]: > 7.00

Cc1cc(Nc2nccc(C(F)(F)F)n2)cc(-c2cnc(C3(O)CCCN(C(=O)C(C)(CO)CO)CC3)s2)c1 (single isomer, unassigned) [Example 54D-80]
pIC50 [2, 7]: > 7.00

Cc1cc(Nc2nccc(C(C)O)n2)cc(-c2cnc(C3(O)CCC(C(=O)O)C(C)(C)C3)s2)c1 (single isomer, unassigned) [Example 100A-15]
pIC50 [2, 8]: > 7.00

Cc1cc(Nc2nccc(C(F)(F)F)n2)cc(-c2cnc(CNC(CO)C(C)O)s2)c1 (single isomer, unassigned) [Example 88A-44]
pIC50 [2, 8]: > 7.00

Cc1cc(Nc2nccc(C(F)(F)F)n2)cc(-c2cnc(C3(O)CCCC(C(=O)O)C(C)(C)C3)s2)c1 (centres unmarked) [Example 33B-12]
pIC50 [2, 3]: > 7.00

Cc1cc(Nc2ncc(Cl)cn2)cc(-c2cnc(C3(O)CCC(C(=O)O)C(C)(C)C3)s2)c1 (single isomer, unassigned) [Example 33A-44]
pIC50 [2, 4]: > 7.00

Cc1cc(Nc2nccc(C)n2)cc(-c2cnc(C3(O)CCN(C(N)=O)C3)s2)c1 (centres unmarked) [54B-14]
pIC50 [2, 5]: > 7.00

Cc1cc(Nc2nccc(C)n2)cc(-c2cnc(C3(O)CCC(C(=O)O)CC3C)s2)c1 (centres unmarked) [Example 113A-84]
pIC50 [2, 9]: > 7.00

Cc1cc(Nc2nccc(C(F)(F)F)n2)cc(-c2cnc(C3(O)CCCN(C(=O)c4cnn[nH]4)CC3)s2)c1 (single isomer, unassigned) [Example 54D-37]
pIC50 [2, 7]: > 7.00

Cc1cc(Nc2nccc(C)n2)cc(-c2cnc(C3(O)CC(C)C(C(=O)O)CC3C)s2)c1 (centres unmarked) [Example 113B-4]
pIC50 [2, 6]: > 7.00

Cc1cc(Nc2nccc(C)n2)cc(-c2cnc(C3(O)CC(C)C(C(=O)O)C(C)C3)s2)c1 (centres unmarked) [Example 113B-22]
pIC50 [2, 6]: > 7.00

CC(C)(c1ncc(-c2cc(F)cc(Nc3nccc(C(F)(F)F)n3)c2)s1)S(N)(=O)=O [74A-10]
pIC50 ([2]; read-out: rhSYK Activity, Table 74A): 6.00 to 7.00

CCOC(=O)C1CCC(O)(c2ncc(-c3cc(C)cc(Nc4nccc(CC)n4)c3)s2)CC1C (centres unmarked) [Example 113A-32]
pIC50 [2, 9]: > 7.00

Cc1cc(Nc2nccc(C(F)(F)F)n2)cc(-c2cnc(C3(O)CCC(C(=O)O)C(C)(C)C3C)s2)c1 (single isomer, unassigned) [Example 33A-78]
pIC50 [2, 4]: > 7.00

Cc1cc(Nc2nccc(C(F)(F)F)n2)cc(-c2cnc(C3(O)CCCC(C(=O)O)C(C)(C)C3)s2)c1 (centres unmarked) [Example 33B-9]
pIC50 [2, 3]: > 7.00

CCOC(=O)C1CCC(O)(c2ncc(-c3cc(C)cc(Nc4nccc(C)n4)c3)s2)C(C)C1C (centres unmarked) [Example 113A-72]
pIC50 [2, 9]: > 7.00

Cc1cc(Nc2nc(C)cc(C)n2)cc(-c2cnc(C3(O)CCC(C(=O)O)C(C)(C)C3)s2)c1 (centres unmarked) [Example 100A-10]
pIC50 [2, 8]: 6.00 to 7.00

CCc1ccnc(Nc2cc(C)cc(-c3cnc(C4(O)CCC(C(=O)O)C(C)C4)s3)c2)n1 (centres unmarked) [Example 113A-15]
pIC50 [2, 9]: > 7.00

Cc1cc(Nc2nccc(C(F)(F)F)n2)cc(-c2cnc(C3(O)CCCN(C(=O)c4n[nH]c(=O)[nH]4)CC3)s2)c1 (centres unmarked) [Example 54D-63]
pIC50 [2, 7]: > 7.00

Cc1cc(Nc2nccc(C(F)F)n2)cc(-c2cnc(C3(O)CCC(C(=O)O)C(C)C3)s2)c1 (centres unmarked) [116A-19]
pIC50 ([2]; read-out: rhSYK Activity, Table 116A): > 7.00

Cc1cc(Nc2nccc(C3CC3)n2)cc(-c2cnc(C3(O)CCC(C(=O)O)C(C)(C)C3)s2)c1 (centres unmarked) [Example 33A-42]
pIC50 [2, 4]: > 7.00

CC1(C)CC(O)(c2ncc(-c3cc(Nc4nccc(C(F)(F)F)n4)cc(C(F)F)c3)s2)CCC1C(=O)O (single isomer, unassigned) [Example 33A-58]
pIC50 [2, 4]: > 7.00

Cc1cc(Nc2nccc(C(F)(F)F)n2)cc(-c2cnc(C3(O)CCCN(C(=O)c4n[nH]c(C(F)(F)F)n4)CC3)s2)c1 (single isomer, unassigned) [Example 54D-110]
pIC50 [2, 7]: > 7.00

COc1ccnc(Nc2cc(C)cc(-c3cnc(C4(O)CCC(C)(C(=O)O)CC4)s3)c2)n1 (centres unmarked) [Example 33A-37]
pIC50 [2, 4]: > 7.00

Cc1cc(Nc2nccc(C)n2)cc(-c2cnc(C3(O)CCC(C(=O)O)CC3C)s2)c1 (centres unmarked) [Example 113A-82]
pIC50 [2, 9]: > 7.00

Cc1cc(Nc2nccc(C(F)(F)F)n2)cc(-c2cnc(C3(O)CCCC(C(=O)O)C(C)(C)C3)s2)c1 (centres unmarked) [Example 33B-10]
pIC50 [2, 3]: > 7.00

CCOC(=O)C1CCC(O)(c2ncc(-c3cc(C)cc(Nc4nccc(OCCCOC)n4)c3)s2)CC1C (centres unmarked) [Example 113A-48]
pIC50 [2, 9]: > 7.00

Cc1cc(Nc2nccc(C(F)(F)F)n2)cc(-c2cnc(C3(O)CCCN(C(=O)c4cnon4)CC3)s2)c1 (single isomer, unassigned) [Example 54D-39]
pIC50 [2, 7]: > 7.00

Cc1cc(Nc2nccc(C(F)(F)F)n2)cc(-c2cnc(C3(O)CCCN(C(N)=O)CC3)s2)c1 (single isomer, unassigned) [Example 54D-120]
pIC50 [2, 7]: > 7.00

Cc1cc(Nc2nccc(C(F)(F)F)n2)cc(-c2cnc(C3(O)CC(C)C(C(=O)O)CC3C)s2)c1 (centres unmarked) [Example 113B-14]
pIC50 [2, 6]: > 7.00

Cc1cc(Nc2nccc(C(C)C)n2)cc(-c2cnc(C3(O)CCCNCC3)s2)c1 (centres unmarked) [113C-14]
pIC50 ([2]; read-out: rhS YK Activity, Table 113C): > 7.00

Cc1cc(Nc2nccc(C(F)(F)F)n2)cc(-c2cnc(C3(O)CC(C)C(C(=O)O)C(C)C3)s2)c1 (centres unmarked) [Example 113B-25]
pIC50 [2, 6]: > 7.00

Cc1cc(Nc2nccc(C)n2)cc(-c2cnc(C3(O)CCC(C(=O)O)C(C)C3C)s2)c1 (centres unmarked) [Example 113A-68]
pIC50 [2, 9]: > 7.00

Cc1cc(Nc2nccc(C)n2)cc(-c2cnc(C3(O)CCC(C(=O)O)C(C)C3)s2)c1 (centres unmarked) [Example 113A-7]
pIC50 [2, 9]: > 7.00

Cc1cc(Nc2nccc(C(F)(F)F)n2)cc(-c2cnc(C3(O)CCC(O)C(C)(C)C3)s2)c1 (centres unmarked) [8A-7]
pIC50 ([2]; read-out: rhSYK Activity, Table 8A): > 7.00

Cc1cc(Nc2nccc(C(F)(F)F)n2)cc(-c2cnc(C(C)(O)c3ccc(C(=O)O)s3)s2)c1 (single isomer, unassigned) [Example 33D-22]
pIC50 ([2]; read-out: rhSYK Activity, Table 33D): > 7.00

Cc1cc(Nc2nccc(C(F)(F)F)n2)cc(-c2cnc(C3CCC(C(N)=O)C(C)(C)C3)s2)c1 (single isomer, unassigned) [154(b), 2,2-Dim ethyl-4-[5-(3-methyl-5-{[4-(trifluoromethyl)pyrimidin-2-yl]amino}phenyl)-1,3-thiazol-2-yl]cyclohexanecarboxamide]
pIC50 [2, 8]: > 7.00

Cc1cc(Nc2nccc(C(F)(F)F)n2)cc(-c2cnc(C3(O)C[C@@H]4C(C(=O)O)[C@@H]4C3)s2)c1 (some centres unmarked) [Example 33C-10]
pIC50 ([2]; read-out: rhSYK Activity, Table 33C): > 7.00

Cc1cc(Nc2nccc(C(F)(F)F)n2)cc(-c2cnc(C3(O)CCCN(S(N)(=O)=O)CC3)s2)c1 (single isomer, unassigned) [Example 54D-117]
pIC50 [2, 7]: > 7.00

Cc1cc(Nc2nccc(C(F)(F)F)n2)cc(-c2cnc(C3(O)CCCN(C(=O)OC(C)(C)C)CC3)s2)c1 (single isomer, unassigned) [45-2]
pIC50 ([2]; read-out: rhSYK Activity, Table 45): 6.00 to 7.00

COCCCOc1ccnc(Nc2cc(C)cc(-c3cnc(C4(O)CCC(C(=O)O)C(C)C4)s3)c2)n1 (centres unmarked) [Example 113A-41]
pIC50 [2, 9]: > 7.00

Cc1cc(Nc2nccc(C(C)C)n2)cc(-c2cnc(C3(O)CCNC(=O)CC3)s2)c1 (single isomer, unassigned) [Example 10A-3]
pIC50 ([2]; read-out: rhSYK Activity, Table 10, Formula A): > 7.00

Cc1cc(Nc2nccc(C)n2)cc(-c2cnc(C3(O)CCC(C(=O)O)C(C)C3)s2)c1 (centres unmarked) [Example 113A-6]
pIC50 [2, 9]: > 7.00
